Experiments:
[1] = Residual Na2HPO4 concentration after acetone extractive crystallization of the supernatant (Example 2); assay type: physicochemical; conditions: acetone added to 10 wt % supernatant; lowest value, depends on amount of solvent
Description: […]. There is an instantaneous phase separation resulting in precipitation of solid crystal hydrates upon acetone addition. The mixture was allowed to settle for 1 hour before the solid crystals are removed. […] The Na2HPO4 concentration in water/acetone mixtures were then calculated accordingly. All the measurements were repeated for three times.

[2] = Water flux during forward osmosis in a cross-flow setup (Example 3, FIG. 2); conditions: 40 wt % draw solution
Description: Water flux during FO was measured in a cross-flow setup by monitoring the feed solution weight decrease with time. The method is adapted from a reported standard procedure. The initial weight of feed solution and draw solution was 500 g and 200 g, respectively. The effective membrane area was 58.5 cm^2. The feed and draw solutions flew in co-current in order to reduce the tension stress on membrane. The flow rate was 400 ml/min and plastic spacers were used in both feed and draw sides to reduce concentration polarization. During the tests, the temperature in draw solution and feed solution were monitored to be 50±1° C. and 46±2° C. respectively. The concentrations of feed solution and draw solution were kept virtually constant during the measurement. Water flux measurements were conducted in both FO mode (selective membrane layer facing towards feed solution) and PRO mode (selective layer facing towards draw solution). The water flux was calculated by: Flux=Δm/(A*t) (1)
Where Δm is the value of feed solution weight decrease (kg), t is the corresponding measurement time (h) and A is the membrane area in square meters. Therefore, the flux is in unit of liter per square meter per hour (LMH) if the density of water is assumed to be 1 kg/L.

## Disodium phosphate
[1]
  residual Na2HPO4 concentration after extractive crystallization: 0.28 wt %
[2]; feed 3.5 wt % NaCl (artificial seawater), FO mode, draw 50±1° C., feed 46±2° C.
  water flux: 8 LMH
[2]; feed 3.5 wt % NaCl (artificial seawater), PRO mode, draw 50±1° C., feed 46±2° C.
  water flux: 19 LMH
[2]; feed 17 wt % NaCl
  water flux: about 1.0 LMH

Reference: patent publication US10549237B2, “Regenerable draw solute for osmotically driven processes” (NANYANG TECHNOLOGICAL UNIVERSITY, priority 2015, dated 2020)
